Common to all, as to experiment: ≥ marks a high value that may be exact or a test limit, other limits are often not marked, values filed in µg/mL are converted to µM
Assay [1] has as its system Enterococcus faecium VR.
Assay [2] relates to Staphylococcus aureus KCTC 1621.
The subject of assay [3] is Bacillus subtilis KCTC 3068.
Assay [4] relates to Staphylococcus epidermidis KCTC 1917.
The test system of assay [5] is Pseudomonas aeruginosa KCTC 1637.
Assay [6] relates to Escherichia coli KCTC 1682.
Assay [7] concerns Enterococcus faecium.
For assay [8], the system named is Staphylococcus aureus MR.
Assay [9] relates to Salmonella typhimurium KCTC 1926.
Assay [10] relates to Enterococcus faecalis.
The test system of assay [11] is Enterococcus faecalis VR.
Assay [12] concerns Candida albicans CICC 1965.
In assay [13] the test system is Proteus mirabilis.
Assay [14] deals with Staphylococcus cohnii MW767053.
Assay [15] relates to Staphylococcus simulans.
Assay [16] concerns Aspergillus niger CICC 2124.
Assay [17] relates to Staphylococcus pseudintermedius.
The subject of assay [18] is Pseudomonas aeruginosa CICC 21636.
The subject of assay [19] is Staphylococcus pseudintermedius MW767056.
Assay [20] concerns Escherichia coli CICC 10293.
Assay [21] concerns Microsporum canis.
Assay [22] has as its system Microsporum canis MW768151.
Assay [23] has as its system Salmonella enterica subsp. enterica serovar Paratyphi B CICC 10437.
The subject of assay [24] is Staphylococcus sciuri.
Assay [25] has as its system Enterobacter cloacae CICC 21539.
The test system of assay [26] is Staphylococcus haemolyticus.
The test system of assay [27] is Saccharomyces cerevisiae CICC 1002.
Assay [28] deals with Listeria innocua CICC 10417.
The test system of assay [29] is Staphylococcus aureus CICC 10306.
In assay [30] the test system is Bacillus subtilis CICC 10034.
The subject of assay [31] is Staphylococcus aureus CICC 10384.
Assay [32] has as its system Serratia marcescens ATCC 4112.
Assay [33] has as its system Trichophyton mentagrophytes.
The subject of assay [34] is Staphylococcus aureus ATCC 25923.
Assay [35] relates to Vibrio anguillarum ATCC 43305.
The test system of assay [36] is Bacillus subtilis ATCC 6051.
Assay [37] deals with Acinetobacter baumannii ATCC 19606.
Assay [38] deals with Pseudomonas aeruginosa ATCC 27853.
Assay [39] relates to Escherichia coli ATCC 25922.
Assay [40] deals with Candida albicans ATCC 10231.
Assay [41] concerns Staphylococcus aureus ATCC 9144.
In assay [42] the test system is Candida glabrata ATCC 15126.
The subject of assay [43] is Enterococcus faecalis PCM 2673.
In assay [44] the test system is Streptococcus pneumoniae ATCC 49619.
Assay [45] has as its system Klebsiella pneumoniae ATCC 700603.
The test system of assay [46] is Aspergillus niger ATCC 16404.
Assay [47] has as its system Pseudomonas aeruginosa ATCC 9027.
Assay [48] concerns Escherichia coli ATCC 23506.
Assay [49] relates to Escherichia coli UB1005.
Assay [50] deals with Pseudomonas aeruginosa PAO1.
Assay [51] has as its system Bacillus cereus C737.

≈ marks a conversion by molar mass, not a printed value.

As to `CC(C)C[C@H](NC(=O)[C@H](CO)NC(=O)[C@H](CC(C)C)NC(=O)[C@H](CS)NC(=O)[C@H](CC(N)=O)NC(=O)[C@H](C)NC(=O)[C@H](C)N)C(=O)NCC(=O)N[C@@H](CCCCN)C(=O)N[C@@H](C)C(N)=O` [AANCLSLGKA], the minimal inhibitory concentration (MIC) in assay [1], in assay [2], in assay [3], in [4], in assay [5] and in assay [6] was 30 µM (≈ 28.4 µg/mL) throughout. For the same molecule, the minimum inhibitory concentration (MIC) in [7], in [8], in assay [9], in [10] and in assay [11] was 30 µM (≈ 28.4 µg/mL) throughout.

As for `CC[C@H](C)[C@H](NC(=O)[C@@H](NC(=O)[C@H](CO)NC(=O)[C@H](Cc1ccccc1)NC(=O)[C@H](CC(C)C)NC(=O)[C@H](CCCN=C(N)N)NC(=O)[C@@H](NC(=O)[C@H](CC(C)C)NC(=O)CN)[C@@H](C)O)C(C)C)C(=O)N[C@@H](CCCCN)C(=O)O` [GLTRLFSVIK], the minimum inhibitory concentration (MIC) in assay [12] is 28.2 µM (≈ 32 µg/mL); in [13], ≥ 226 µM; in [14], ≥ 56.5 µM; in [15], ≥ 226 µM; in assay [16] it was ≥ 56.5 µM; in [17], ≥ 56.5 µM. Besides, the minimum inhibitory concentration (MIC) in assay [18] was determined as 7.06 µM (≈ 8 µg/mL); in assay [19], 28.2 µM (≈ 32 µg/mL); in assay [20], 14.1 µM (≈ 16 µg/mL); in assay [21], 0.624 µM (≈ 0.707 µg/mL); in assay [22], 0.882 µM (≈ 1 µg/mL); in assay [23], 28.2 µM (≈ 32 µg/mL). Also, the MIC in assay [24] is ≥ 226 µM; in assay [25] it was 14.1 µM (≈ 16 µg/mL); in assay [26], ≥ 226 µM; in assay [27], ≥ 56.5 µM; in [28], 28.2 µM (≈ 32 µg/mL); in assay [29] it was 14.1 µM (≈ 16 µg/mL). Further, the minimum inhibitory concentration (MIC) in assay [30] turned out to be 28.2 µM (≈ 32 µg/mL); in assay [31], 14.1 µM (≈ 16 µg/mL); in assay [32], 7.06 µM (≈ 8 µg/mL); in assay [33], 0.882 µM (≈ 1 µg/mL).

Consider `CC(C)C[C@H](N)C(=O)N[C@@H](CCCN=C(N)N)C(=O)N[C@@H](Cc1c[nH]c2ccccc12)C(=O)N[C@H](C(=O)N1CCC[C@H]1C(=O)N[C@H](C(=O)N1CCC[C@H]1C(=O)N[C@@H](CO)C(=O)N[C@@H](Cc1ccc(O)cc1)C(=O)N1CCC[C@H]1C(=O)N[C@@H](CCCN=C(N)N)C(=O)N[C@@H](Cc1ccc(O)cc1)C(=O)N1CCC[C@H]1C(=O)N[C@H](C(=O)N[C@@H](CCCN=C(N)N)C(=O)N[C@@H](CO)C(=O)N[C@@H](CCCN=C(N)N)C(=O)NCC(=O)N[C@@H](CO)C(=O)N[C@@H](CCCN=C(N)N)C(=O)N[C@@H](Cc1c[nH]c2ccccc12)C(=O)N[C@@H](CO)C(=O)N[C@@H](CCCN=C(N)N)C(N)=O)[C@@H](C)O)[C@@H](C)O)[C@@H](C)O` [LRWTPTPSYPRYPTRSRGSRWSR], for which the MIC in [34] was > 32 µM; in assay [35], ≥ 32 µM; in assay [36], ≥ 32 µM; in [37], 8 µM (≈ 22.9 µg/mL); in assay [38], > 32 µM; in assay [39], 11.3 µM (≈ 32.4 µg/mL).

For the molecule `CC[C@H](C)[C@H](NC(=O)[C@H](CC(C)C)NC(=O)[C@H](CCCN=C(N)N)NC(=O)[C@H](Cc1c[nH]c2ccccc12)NC(=O)[C@@H]1CCCN1C(=O)[C@H](Cc1c[nH]c2ccccc12)NC(=O)[C@H](Cc1c[nH]c2ccccc12)NC(=O)[C@@H]1CCCN1C(=O)[C@H](Cc1c[nH]c2ccccc12)NC(=O)[C@H](CCCN=C(N)N)NC(=O)[C@H](CCCN=C(N)N)NC(=O)[C@@H](N)CCCCN)C(N)=O` [KRRWPWWPWRLI], the minimum inhibitory concentration (MIC) in [34] is 4.49 µM (≈ 8 µg/mL); in assay [40], 18 µM (≈ 32 µg/mL); in [41] it was 4.49 µM (≈ 8 µg/mL); in assay [42] it was ≥ 36 µM; in [43], 8.99 µM (≈ 16 µg/mL); in assay [37] it was 8.99 µM (≈ 16 µg/mL). Besides, the minimum inhibitory concentration (MIC) was 4.49 µM (≈ 8 µg/mL) in assay [44]; 2.25 µM (≈ 4 µg/mL) in assay [45]; ≥ 36 µM in assay [46]; 2.25 µM (≈ 4 µg/mL) in assay [47]; 2.25 µM (≈ 4 µg/mL) in assay [48]; 4.49 µM (≈ 8 µg/mL) in assay [39].

For the molecule `CC[C@H](C)[C@H](NC(=O)[C@H](CC(=O)O)NC(=O)[C@H](Cc1ccccc1)NC(=O)[C@H](CC(C)C)NC(=O)CN)C(=O)N[C@H](C(=O)N[C@@H](CCCCN)C(=O)N[C@@H](CCCCN)C(=O)N[C@H](C(=O)N[C@H](C(=O)NCC(=O)N[C@@H](C)C(=O)N[C@H](C(=O)NCC(=O)N[C@@H](CO)C(=O)N[C@@H](CC(C)C)C(N)=O)C(C)C)C(C)C)C(C)C)C(C)C` [GLFDIVKKVVGAVGSL], the values for the MIC in [49], in assay [50] and in assay [51] were ≥ 40 µM, > 79.9 µM and ≥ 79.9 µM, respectively.

Values taken from DBAASP.
